Results: US20260001928A1 (CORTERIA PHARMACEUTICALS, priority 2022, published 2026)
*1 amine or outer side, *2 acyl side, *3 side chain or, on linkers, in order; H or OH if unused. Where a SMILES comes first, the peptide text is derived from it. Side-chain parts run from the residue outwards. [ ]: non-standard residue; d: D form. The star is where a group is joined. C18 diacid = O=C(O)CCCCCCCCCCCCCCCCC(=O)*; C16 diacid = O=C(O)CCCCCCCCCCCCCCC(=O)*; γGlu = O=C(O)[C@H](CCC(=O)[*:2])N[*:1]; Api = NC1(C(=O)O)CCNCC1; Abu = CC[C@H](N)C(=O)O; Aib = CC(C)(N)C(=O)O

Key:
human CRF2a receptor = molecular target: T1, human CRF2a receptor (Homo sapiens, UniProt Q13324); experiment: Activity at human CRF2a receptor, cAMP functional assay in TeloHEAC cells; format: cell-based; conditions: TeloHEAC cells stably expressing human CRF2a receptor, relative to urocortin 2 (100 nM = 100%)
T1 construct: expressed in transfected cells; host or cells: TeloHEAC cells
T1 sequence (Q13324 1-411): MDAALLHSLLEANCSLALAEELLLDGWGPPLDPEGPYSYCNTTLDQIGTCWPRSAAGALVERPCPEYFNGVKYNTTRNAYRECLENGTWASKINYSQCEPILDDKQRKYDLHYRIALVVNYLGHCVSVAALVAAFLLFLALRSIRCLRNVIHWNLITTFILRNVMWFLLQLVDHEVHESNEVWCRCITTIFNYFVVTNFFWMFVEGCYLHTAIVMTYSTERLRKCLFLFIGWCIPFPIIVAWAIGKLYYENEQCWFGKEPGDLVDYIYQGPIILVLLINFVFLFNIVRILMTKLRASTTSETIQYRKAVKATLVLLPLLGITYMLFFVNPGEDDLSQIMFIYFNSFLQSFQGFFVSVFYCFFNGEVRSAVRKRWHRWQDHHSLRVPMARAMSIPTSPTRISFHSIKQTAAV
How it was run: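 cAMP accumulation was measured by HTRF 665/620 nm ratio after 30 min at 37° C compound exposure (16 twofold dilutions) of CRF2a-expressing TeloHEAC cells, 10000/well, in HEPES-buffered HBSS plus IBMX. Activity was normalised to urocortin 2 at 100 nM (100%), and EC50 was the concentration giving half-maximal activation.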

CFR1R receptor = molecular target: T2, CFR1R receptor (Homo sapiens, UniProt P34998); experiment: Activity at anti-target CFR1R receptor, cAMP assay in CRF1R-overexpression CHO-K1 cells; format: cell-based; conditions: 100% = Sauvagine at 100 nM; for EC50: cAMP
T2 construct: host or cells: CHO-K1 (clone 2)
T2 sequence (P34998 24-415): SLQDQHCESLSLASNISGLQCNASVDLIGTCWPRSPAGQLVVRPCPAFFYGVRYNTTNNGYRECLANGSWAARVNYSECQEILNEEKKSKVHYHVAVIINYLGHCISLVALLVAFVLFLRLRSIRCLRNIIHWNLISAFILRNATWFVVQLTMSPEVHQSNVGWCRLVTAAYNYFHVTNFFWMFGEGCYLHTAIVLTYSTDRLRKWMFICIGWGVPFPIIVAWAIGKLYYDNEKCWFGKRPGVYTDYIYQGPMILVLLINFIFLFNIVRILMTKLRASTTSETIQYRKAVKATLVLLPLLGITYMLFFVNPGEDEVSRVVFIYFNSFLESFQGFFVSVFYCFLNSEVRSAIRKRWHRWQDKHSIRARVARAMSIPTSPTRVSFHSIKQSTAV
How it was run: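 cAMP readout in CRF1R-overexpressing CHO-K1 cells (clone 2), run as for the TeloHAEC assay at 4000 cells/well final. Cells came from cryopreserved banks. Sauvagine at 100 nM defined 100% activation.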

[1] = In vitro plasma stability, human plasma; format: in vitro ADME; parameters: dose or concentration left out as unconfirmed; conditions: Human PLM, 37° C.
Description: In vitro plasma metabolic stability was studied in male Sprague Dawley rats and human. Test compounds were incubated at 3 M for 2 hours at 37° C. At each time point (0, 0.25, 1 and 2 h), samples were prepared for analysis by means of a single step protein precipitation technique by adding 150 μL of ethanol, 0.1% formic acid to 50 μL aliquots of plasma. Samples were mixed by vortex for homogeneity and then subjected to centrifugation at 14000 rpm for 15 min. The supernatant (100 μL) was collected, diluted with 100 μL of water, 0.1% formic acid and analyzed by LC-HRMS (TripleTOF 6600+, AB Sciex). For each test compound, the area ratios at each time point were compared to the 0 h area ratio and converted to a percentage remaining.

[2] = In vitro plasma stability, rat plasma; format: in vitro ADME; parameters: remaining at 2 h: dose or concentration left out as unconfirmed; conditions: male, Sprague Dawley, plasma; Rat PLM, 37° C.
[3] = In vitro plasma stability, minipig plasma; format: in vitro ADME; parameters: remaining at 2 h: dose or concentration left out as unconfirmed; conditions: pig, plasma; Minipig PLM, 37° C.
[4] = Chemical stability in buffer (pH 7.4 / pH 4.5), % purity loss; format: physicochemical; conditions: 40° C. vs 5° C., 14 or 28 days; for Buffer stability pH 4.5 % purity loss: 100 mM acetate buffer pH 4.5; for Buffer stability pH 7.4 % purity loss: 100 mM phosphate buffer pH 7.4
How it was run: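 Compounds dissolved at 10 mg/mL target in 100 mM phosphate (pH 7.4) or 100 mM acetate (pH 4.5) buffer for 1 h at room temperature, then centrifuged. Diluted supernatant stored at 5 °C or 40 °C for 14 or 28 days; % purity loss by LC-UV.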

Sprague Dawley rats = experiment: Effect on systolic blood pressure, telemetry in Sprague Dawley rats; format: in vivo, rat; conditions: 0.1 mg/kg SC; for Systolic blood pressure (Mean) % change from baseline, 8 h / Systolic blood pressure (Mean) % change from baseline, 12 h / Systolic blood pressure (Mean) % change from baseline, 24 h: n=2; for Duration of action: last time point with an effect on BP still observed
How it was run: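 Sprague Dawley rats with abdominal-aorta telemetry catheters, recovered ≥10 days, received 0.1 mg/kg SC of compound or vehicle. Systolic pressure recorded 1 h pre-dose as baseline, then continuously up to 48 hours, expressed as % change from baseline; duration of action is last time point with a BP effect (n=2).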

Rat PLM = conditions: male Sprague Dawley rats, 37° C., up to 2 hours
Human PLM = conditions: 37° C., up to 2 hours
Minipig PLM = conditions: 37° C., up to 2 hours
[5] = In vitro subcutaneous tissue supernatant (SCts) stability and metabolite identification, rat; format: in vitro ADME; parameters: remaining at 2 h: dose or concentration left out as unconfirmed; conditions: male, Sprague Dawley; rat subcutaneous tissue supernatant (SCts), 37° C, 2 h

Compound: CC[C@H](C)[C@H](NC(C)=O)C(=O)N[C@H](C(=O)N[C@@H](CC(C)C)C(=O)N[C@@H](CO)C(=O)N[C@@H](CC(C)C)C(=O)N[C@@H](CC(=O)O)C(=O)N[C@@H](C(=O)N1CCC[C@H]1C(=O)N[C@H](C(=O)N[C@@H](CCCCN)C(=O)N[C@@H](CC(C)C)C(=O)N[C@@H](CCCCNC(=O)CC[C@H](NC(=O)CCCCCCCCCCCCCCC(=O)O)C(=O)O)C(=O)N[C@@H](CCCCN)C(=O)N[C@H](C(=O)N[C@@H](CC(C)C)C(=O)N[C@@H](CC(C)C)C(=O)N[C@@H](CCC(=O)O)C(=O)N[C@@H](CCC(N)=O)C(=O)N[C@@H](CCC(=O)O)C(=O)N[C@@H](CCCCN)C(=O)N[C@@H](CCC(N)=O)C(=O)N[C@@H](CCCCN)C(=O)N[C@@H](CCCCN)C(=O)N[C@@H](CCC(N)=O)C(=O)N[C@@H](CCCNC(=N)N)C(=O)N[C@@H](CCC(=O)O)C(=O)N[C@@H](CCC(N)=O)C(=O)N[C@@H](C)C(=O)N[C@@H](CCC(=O)O)C(=O)N[C@H](C(=O)N[C@@H](CC(N)=O)C(=O)NC1(C(=O)N[C@@H](CCC(N)=O)C(=O)N[C@H](C(=O)N[C@@H](CC(C)C)C(=O)N[C@@H](C)C(=O)N[C@@H](CCC(N)=O)C(=O)N[C@H](C(N)=O)C(C)C)[C@@H](C)CC)CCNCC1)[C@@H](C)O)[C@@H](C)CC)[C@@H](C)CC)C(C)C)C(C)C [compound 57] (Ac-IVLSLD[dV]PIKLK([γGlu-C16 diacid])KILLEQEKQKKQREQAETN[Api]QILAQV-NH2)
- EC50 (human CRF2a receptor): 0.39 nM
- Emax (% I) (CFR1R receptor): 24 % I
- EC50 (CFR1R receptor): > 250 nM
- remaining at 2 h [1]: 104%
- remaining at 2 h [2]: 96%
- remaining at 2 h [3]: 81%
- Buffer stability pH 4.5 % purity loss [4]: 0/0 ^ %
- Buffer stability pH 7.4 % purity loss [4]: 0/0 ^ %
- Systolic blood pressure (Mean) % change from baseline, 8 h (Sprague Dawley rats): −34%
- Systolic blood pressure (Mean) % change from baseline, 12 h (Sprague Dawley rats): −25%
- Systolic blood pressure (Mean) % change from baseline, 24 h (Sprague Dawley rats): −2%
- Duration of action (Sprague Dawley rats): >24 h

Compound: Pentanoyl-VLSLDvPIKLK*KILLEQEKQKKQREQAETNAibQILAQV-NH2
- not cleaved (Rat PLM): 98% remaining at 2 hours
- not cleaved (Human PLM): 101% remaining at 2 hours
- not cleaved (Minipig PLM): 104% remaining at 2 hours

Compound: Ac-IVLSLDvPIKαMELK*KILLEQEKQKKQREQAETNAibQILAQV-NH2
- not cleaved (Rat PLM): 95% remaining at 2 hours
- not cleaved (Human PLM): 97% remaining at 2 hours
- not cleaved (Minipig PLM): 106% remaining at 2 hours

Compound: CC[C@H](C)[C@H](NC(C)=O)C(=O)N[C@H](C(=O)N[C@@H](CC(C)C)C(=O)N[C@@H](CO)C(=O)N[C@@H](CC(C)C)C(=O)N[C@@H](CC(=O)O)C(=O)N[C@@H](C(=O)N1CCC[C@H]1C(=O)N[C@H](C(=O)N[C@@H](CCCCN)C(=O)N[C@@H](CC(C)C)C(=O)N[C@@H](CCCCNC(=O)CC[C@H](NC(=O)CCCCCCCCCCCCCCCCC(=O)O)C(=O)O)C(=O)N[C@@H](CCCCN)C(=O)N[C@H](C(=O)N[C@@H](CC(C)C)C(=O)N[C@@H](CC(C)C)C(=O)N[C@@H](CCC(=O)O)C(=O)N[C@@H](CCC(N)=O)C(=O)N[C@@H](CCC(=O)O)C(=O)N[C@@H](CCCCN)C(=O)N[C@@H](CCC(N)=O)C(=O)N[C@@H](CCCCN)C(=O)N[C@@H](CCCCN)C(=O)N[C@@H](CCC(N)=O)C(=O)N[C@@H](CCCNC(=N)N)C(=O)N[C@@H](CCC(=O)O)C(=O)N[C@@H](CCC(N)=O)C(=O)N[C@@H](C)C(=O)N[C@@H](CCC(=O)O)C(=O)N[C@H](C(=O)N[C@@H](CC(N)=O)C(=O)NC(C)(C)C(=O)N[C@@H](CCC(N)=O)C(=O)N[C@H](C(=O)N[C@@H](CC(C)C)C(=O)N[C@@H](C)C(=O)N[C@@H](CCC(N)=O)C(=O)N[C@H](C(N)=O)C(C)C)[C@@H](C)CC)[C@@H](C)O)[C@@H](C)CC)[C@@H](C)CC)C(C)C)C(C)C [compound 125] (Ac-IVLSLD[dV]PIKLK([γGlu-C18 diacid])KILLEQEKQKKQREQAETN[Aib]QILAQV-NH2)
- EC50 (human CRF2a receptor): 0.15 nM
- Emax (% I) (CFR1R receptor): 18 % I
- EC50 (CFR1R receptor): > 250 nM
- remaining at 2 h [1]: 93%
- remaining at 2 h [2]: 108%
- remaining at 2 h [3]: 110%
- remaining at 2 h [5]: 79%
- Buffer stability pH 7.4 % purity loss [4]: 0/nd ^ %
- Systolic blood pressure (Mean) % change from baseline, 8 h (Sprague Dawley rats): −25%
- Systolic blood pressure (Mean) % change from baseline, 12 h (Sprague Dawley rats): −16%
- Systolic blood pressure (Mean) % change from baseline, 24 h (Sprague Dawley rats): 1%
- Duration of action (Sprague Dawley rats): 22 h

Compound: CC[C@H](NC(=O)[C@H](CC(N)=O)NC(=O)[C@@H](NC(=O)[C@H](CCC(=O)O)NC(=O)[C@H](C)NC(=O)[C@H](CCC(N)=O)NC(=O)[C@H](CCC(=O)O)NC(=O)[C@H](CCCNC(=N)N)NC(=O)[C@H](CCC(N)=O)NC(=O)[C@H](CCCCN)NC(=O)[C@H](CCCCN)NC(=O)[C@H](CCC(N)=O)NC(=O)[C@H](CCCCN)NC(=O)[C@H](CCC(=O)O)NC(=O)[C@H](CCC(N)=O)NC(=O)[C@H](CCC(=O)O)NC(=O)[C@H](CC(C)C)NC(=O)[C@H](CC(C)C)NC(=O)[C@@H](NC(=O)[C@H](CCCCN)NC(=O)[C@H](CCCCNC(=O)CC[C@H](NC(=O)CCCCCCCCCCCCCCC(=O)O)C(=O)O)NC(=O)[C@H](CC(C)C)NC(=O)[C@H](CCCCN)NC(=O)[C@@H](NC(=O)[C@@H]1CCCN1C(=O)[C@H](NC(=O)[C@H](CC(=O)O)NC(=O)[C@H](CC(C)C)NC(=O)[C@H](CO)NC(=O)[C@H](CC(C)C)NC(=O)[C@@H](NC(=O)[C@@H](NC(C)=O)[C@@H](C)CC)C(C)C)C(C)C)[C@@H](C)CC)[C@@H](C)CC)[C@@H](C)O)C(=O)N[C@@H](CCC(N)=O)C(=O)N[C@H](C(=O)N[C@@H](CC(C)C)C(=O)N[C@@H](C)C(=O)N[C@@H](CCC(N)=O)C(=O)N[C@H](C(N)=O)C(C)C)[C@@H](C)CC [compound 51] (Ac-IVLSLD[dV]PIKLK([γGlu-C16 diacid])KILLEQEKQKKQREQAETN[Abu]QILAQV-NH2)
- EC50 (human CRF2a receptor): 0.12 nM
- Emax (% I) (CFR1R receptor): 9 % I
- EC50 (CFR1R receptor): > 250 nM
- remaining at 2 h [1]: 102%
- remaining at 2 h [2]: 73%
- remaining at 2 h [3]: 97%
- Buffer stability pH 4.5 % purity loss [4]: 0/0 ^ %
- Buffer stability pH 7.4 % purity loss [4]: 0/0 ^ %
- Systolic blood pressure (Mean) % change from baseline, 8 h (Sprague Dawley rats): −27%
- Systolic blood pressure (Mean) % change from baseline, 12 h (Sprague Dawley rats): −19%
- Systolic blood pressure (Mean) % change from baseline, 24 h (Sprague Dawley rats): −1%
- Duration of action (Sprague Dawley rats): 24 h

Compound: Ac-IVLSLDvPIKLK*KILLEQEKQKKQREQAETNAbuQILAQV-NH2
- not cleaved (Human PLM): 102% remaining at 2 hours
- not cleaved (Minipig PLM): 97% remaining at 2 hours

Compound: Ac-IVLSLDvPIKLK*KILLEQEKQKKQREQAETNAibQILAQV-NH2
- not cleaved (Rat PLM): 108% remaining at 2 hours
- not cleaved (Human PLM): 93% remaining at 2 hours
- not cleaved (Minipig PLM): 110% remaining at 2 hours

Compound: NMeIVLSLDvPIKLK*KILLEQEKQKKQREQAETNAibQILAQV-NH2
- not cleaved (Rat PLM): 128% remaining at 2 hours
- not cleaved (Human PLM): 91% remaining at 2 hours
- not cleaved (Minipig PLM): 126% remaining at 2 hours
